Measured values: patent US6143790A, “L-N^6 -(1-iminoethyl)lysine derivatives useful as nitric oxide synthase inhibitors” (G.D. Searle & Co., priority 1996, dated 2000)
Where a name gives a salt, the structure may show the parent alone. Values belong to the compound of their own block, whether it stands above or below them.

Columns and labels:
[1] = test system: iNOS; experiment: % inhibition of iNOS at 100 μM; format: biochemical
Method: (§1) Citrulline Assay for Nitric Oxide Synthase Nitric oxide synthase activity was measured by monitoring the conversion of L-[2,3-3H]-arginine to L-[2,3-3H]-citrulline (1,2). Human inducible NOS (hiNOS), human endothelial constitutive NOS (hecNOS) and human neuronal constitutive NOS (hncNOS) were each cloned from RNA extracted from human tissue. The recombinant enzymes were expressed in insect cells using a baculovirus vector. Enzyme activity was isolated from cell extracts and partially purified by DEAE-Sepharose chromatography (2). Mouse inducible NOS (miNOS) was prepared from an extract of LPS-treated mouse RAW 264.7 cells and rat brain constitutive NOS (rcNOS) was prepared from an extract of rat cerebellum. Both preparations were partially purified by DEAE-Sepharose chromatography (2). Enzyme and inhibitors were added to give a volume of 50 μL in 50 mM Tris (pH 7.6) and the reaction initiated by the addition of 50 μL of a solution containing 50 mM Tris (pH 7.6), 2.0 mg/mL bovine serum albumin, 2.0 mM DTT, 4.0 mM CaCl2, 20 μM FAD, 100 μM tetrahydrobiopterin, 0.4-2.0 mM NADPH and 60 μM L-arginine containing 0.9 μCi of L-[2,3-3H]-arginine. For constitutive NOS, calmodulin was included at a final concentration of 40-100 nM. Following incubation at 37° C. for 15 minutes, the reaction was terminated by addition of 300 μL cold buffer containing 10 mM EGTA, 100 mM HEPES (pH5.5) and 1.0 mM L-citrulline. The [3H]-citrulline was separated by chromatography on Dowex 50W X-8 cation exchange resin and radioactivity quantified with a liquid scintillation counter.

[2] = target: T1, Human inducible NOS (hiNOS) (Homo sapiens, UniProt P35228); experiment: Citrulline Assay for Nitric Oxide Synthase, hiNOS; format: biochemical
T1 construct: made in house; host or cells: insect cells, baculovirus vector
Method: (§2) Citrulline Assay for Nitric Oxide Synthase
as §1, with “Nitric” for “Citrulline Assay for Nitric Oxide Synthase Nitric”

[3] = target: T2, human neuronal constitutive NOS (hncNOS) (Homo sapiens, UniProt P29475); experiment: Citrulline Assay for Nitric Oxide Synthase, hncNOS; format: biochemical
T2 construct: made in house; host or cells: insect cells, baculovirus vector
Method: as §2
as §1, with “Nitric” for “Citrulline Assay for Nitric Oxide Synthase Nitric”

[4] = target: T3, RAW cell i-NOS (Mus musculus, UniProt P29477); experiment: Raw Cell Nitrite Assay; format: cell-based; settings: RAW 264.7 cells, LPS induced, L-arginine 30 μM
T3 construct: grown overnight (17 h) in the presence of LPS to induce NOS; endogenous in cells; host or cells: RAW 264.7 cells, LPS-induced
Method: RAW 264.7 cells are plated to confluency on a 96-well tissue culture plate grown overnight (17 h) in the presence of LPS to induce NOS. A row of 3-6 wells are left untreated and served as controls for subtraction of nonspecific background. The media is removed from each well and the cells are washed twice with Krebs-Ringers-Hepes (25 mM, pH 7.4) with 2 mg/ml glucose. The cells are then placed on ice and incubated with 50 μL of buffer containing L-arginine (30 μM) +/-inhibitors for 1 h. The assay is initiated by warming the plate to 37° C. in a water bath for 1 h. Production of nitrite by intracellular iNOS is linear with time. To terminate the cellular assay, the plate of cells is placed on ice and the nitrite-containing buffer removed and analyzed for nitrite using a previously published fluorescent determination for nitrite. All values are the average of triplicate wells and are compared to a background-subtracted induced set of cells (100% value).

[5] = target: T4, human endothelial constitutive NOS (hecNOS) (Homo sapiens, UniProt P29474); experiment: Citrulline Assay for Nitric Oxide Synthase, hecNOS; format: biochemical
T4 construct: made in house; host or cells: insect cells, baculovirus vector
Method: as §2
as §1, with “Nitric” for “Citrulline Assay for Nitric Oxide Synthase Nitric”

[6] = test system: constitutive and the inducible NO synthase; settings: constitutive vs inducible NO synthase; cited from earlier work

SMILES: CC(=N)NCCCC[C@H](N)C(O)CO (single isomer, unassigned) [Example 3A, N-(5S-amino-6,7-dihydroxyheptyl)ethanimidamide, dihydrochloride]
% inhibiton iNOS at 100 μM [1]: 53.4%

IC50 [2]: 12.3 µM
IC50 [3]: 150 µM
IC50 [4]: 80 µM
SMILES: CC(=N)NCCCC[C@H](N)C(O)CO (single isomer, unassigned) [Example 3B, N-(5S-amino-6,7-dihydroxyheptyl)ethanimidamide, dihydrochloride]

SMILES: CC(=N)NCCCC[C@H](N)C(O)c1ccccc1 (single isomer, unassigned) [Example 11A, α-[1-amino-5-[(1-iminoethyl)amino]pentyl]benzenemethanol hydrochloride dihydrate]
% inhibiton iNOS at 100 μM (symbol) [1]: * (At 100 μM dose, response was not seen.)

SMILES: CC(=N)NCCCC[C@H](N)C(O)c1ccccc1 (single isomer, unassigned) [Example 11B, α-[1-amino-5-[(1-iminoethyl)amino]pentyl]benzenemethanol hydrochloride dihydrate]
% inhibiton iNOS at 100 μM [1]: 4.6%

IC50 [2]: 9.3 µM
IC50 [5]: 2350 µM
IC50 [3]: 99.6 µM
IC50 [4]: 57.3 µM
SMILES: CC(=N)NCCCC[C@H](N)C(C)(O)CO (single isomer, unassigned) [Example 15A, N-(5S-amino-6,7-dihydroxy-6-methylheptyl)ethanimidamide, hydrochloride dihydrate]

IC50 [2]: 187 µM
IC50 [5]: 6590 µM
IC50 [3]: 441 µM
SMILES: CC(=N)NCCCC[C@H](N)C(C)(O)CO (single isomer, unassigned) [Example 15B, N-(5S-amino-6,7-dihydroxy-6-methylheptyl)ethanimidamide, hydrochloride dihydrate]

IC50 [2]: 76.8 µM
IC50 [5]: 5430 µM
IC50 [3]: 670 µM
IC50 [4]: > 100 µM
SMILES: CC(=N)NCCCC[C@H](N)C(O)C(C)O (single isomer, unassigned) [Example 16B, N-(5S-amino-6,7-dihydroxyoctyl) ethanimidamide, dihydrochloride hydrate]

SMILES: CC(=N)NCCCC[C@H](N)C(C)O (single isomer, unassigned) [Example 40A, N-(5S-amino-6-hydroxyheptyl)ethanimidamide, dihydrochloride dihydrate]
% inhibiton iNOS at 100 μM [1]: 32.6%

IC50 [2]: 61 µM
IC50 [5]: 1990 µM
IC50 [3]: 898 µM
IC50 [4]: 300 µM
SMILES: CC(=N)NCCCC[C@H](N)CC(=O)O [Example 1, 3S-amino-7-[(1-iminoethyl)amino]heptanoic Acid]

SMILES: CCOC(=O)C[C@@H](N)CCCCNC(C)=N [Example 1d, Ethyl 3S-amino-7-[(1-iminoethyl)amino]heptanoate]
% inhibiton iNOS at 100 μM [1]: 35%

SMILES: CC(=N)NCCC[C@H](N)CC(=O)O [Example 2, 3S-amino-6-[(1-iminoethyl)amino]hexanoic Acid]
% inhibiton iNOS at 100 μM (symbol) [1]: * (At 100 μM dose, response was not seen.)

SMILES: CCOC(=O)C[C@@H](N)CCCNC(C)=N [Example 2d]
% inhibiton iNOS at 100 μM [1]: 5%

SMILES: CC(=N)NCCCC(C)N (stereo not drawn) [Example 4, Ni-(1-iminoethyl)-1,4-pentanediamine, dihydrochloride]
% inhibiton iNOS at 100 μM [1]: 33%

SMILES: CCC(N)CCCCNC(C)=N (stereo not drawn) [Example 5, N1-(1-iminoethyl) -1,5-heptanediamine]
% inhibiton iNOS at 100 μM [1]: 27%

SMILES: CC(=N)Nc1ccc(C(N)CC(=O)O)cc1.Cl.Cl.O (stereo not drawn) [Example 10, β-amino-4-[(1-iminoethyl)amino]benzenepropanoic acid, dihydrochloride hydrate]
% inhibiton iNOS at 100 μM [1]: 3.4%

SMILES: COC(=O)CC(N)c1ccc(NC(C)=N)cc1 (stereo not drawn) [Example 10f]
% inhibiton iNOS at 100 μM [1]: 7.7%

SMILES: CC(=N)NCCCC[C@H](N)C(=O)c1cccs1 [Example 12, N-[5S-amino-6-oxo-6-(2-thienyl)hexyl]ethanimidamide, hydrate]
% inhibiton iNOS at 100 μM (symbol) [1]: * (At 100 μM dose, response was not seen.)

SMILES: CC(=N)NCCCC[C@H](N)C(C)=O [Example 14, N-(5S-amino-6-oxoheptyl)ethanimidamide, dihydrochloride]
% inhibiton iNOS at 100 μM (symbol) [1]: * (At 100 μM dose, response was not seen.)

SMILES: CC(=N)NCCCC[C@H](N)C(COC(C)=O)OC(C)=O (stereo partly drawn) [Example 18, N-(6,7-diacetyloxy-5S-aminoheptyl)ethanimidamide, hydrochloride monohydrate]
% inhibiton iNOS at 100 μM [1]: 7%

SMILES: CC(=N)NCCCC[C@H](N)C(O)COC(C)=O (stereo partly drawn) [Example 19, N-(5S-amino-6-hydroxy-7-acetoxyheptyl)ethanimidamide, hydrochloride monohydrate]
% inhibiton iNOS at 100 μM [1]: 54%

SMILES: CC(=N)NCCCC[C@H](N)C(C)O (stereo partly drawn) [Example 40B, N-(5S-amino-6-hydroxyheptyl)ethanimidamide, dihydrochloride dihydrate]
% inhibiton iNOS at 100 μM [1]: 14.5%

SMILES: CC(=N)NCCCC[C@H](N)c1nnn[nH]1 [Example 41, N-[5S-amino-5-(1H-tetrazol-5-yl)pentyl]ethanimidamide, dihydrochloride]
% inhibiton iNOS at 100 μM [1]: 28.5%

SMILES: CC(=N)NCCCC[C@H](N)CO [Example 48, N-(5S-amino-6-hydroxyhexyl)ethanimidamide]
% inhibiton iNOS at 100 μM [1]: 40.6%

SMILES: CC(=N)NCCCC[C@H](N)c1ncc(C)o1 [Example 49, N-[5-amino-5-(5-methyloxazol-2-yl)pentyl]ethanimidamide, hydrochloride hydrate]
% inhibiton iNOS at 100 μM [1]: 19.4%

SMILES: CC(=N)NCCCC[C@H](N)C(=O)NO [Example 50, 2S-amino-N-hydroxy-6-[(1-iminoethyl)amino]hexanamide, hydrochloride]
% inhibiton iNOS at 100 μM [1]: 40.6%

SMILES: CNC(=N)NCCC[C@H](N)C(=O)O [L-NMMA, L-N-monomethyl-arginine]
selectivity as NO synthase inhibitor [6]: non-selective
